Test system: GUMC-403
Assay: viability at highest tested concentration (max response) relative to DMSO (% of DMSO control); higher = less cytotoxic
Details: library / dose series: MIPE library, 11-point 1:3 dilution, 48 h
Procedure, shortened: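 The value is viability at the highest tested concentration, expressed relative to vehicle control. Patient-derived GUMC-403 papilloma cells, grown by conditional reprogramming, were seeded at 700/well in 5 μL F + Y medium in 1536-well plates. After an overnight incubation at 37 °C, they received 23 nL of compound by pin tool for 48 h. Readout was CellTiter-Glo luminescence on a ViewLux, normalised to vehicle wells (100%) and empty wells (0%).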

Row | Compound | viability (top concentration 46.1 µM) | viability (top concentration 23 µM)
1 | OC[C@H]1O[C@H](C[C@@H]1O)[N]2C=NC3=C2\N=C/NC[C@H]3O | 83.1 | –
2 | Nc1ccc([S+](=O)([O-])Nc2ccnn2-c2ccccc2)cc1 | 133 | –
3 | COC1=CC=C(C=C1O)C/2=C/C(=O)C3=C(O2)C=C(O[C@@H]4O[C@H](CO[C@@H]5O[C@@H](C)[C@H](O)[C@@H](O)[C@H]5O)[C@@H](O)[C@H](O)[C@H]4O)C=C3O | 117 | –
4 | O=C(C[C@@H]1C/C=C\CCC(=O)O[C@H](c2ccccc2)CNC1=O)NCc1ccc(Cl)cc1 | 97.5 | –
5 | CN(Cc1cnc2nc(N)nc(N)c2n1)c1ccc(C(=O)N[C@@H](CCC(=O)O)C(=O)O)cc1 | 111 | –
6 | Cc1cc(Cl)ccc1OCCCC(=O)NO | 89.3 | –
7 | CO[C@H]1C[C@@H]2CC[C@@H](C)[C@@](O)(O2)C(=O)C(=O)N2CCCC[C@H]2C(=O)O[C@H]([C@H](C)C[C@@H]2CC[C@@H](OCCO)[C@H](OC)C2)CC(=O)[C@H](C)/C=C(/C)[C@@H](O)[C@@H](OC)C(=O)[C@H](C)C[C@H](C)\C=C/C=C\C=C/1C | 84.8 | –
8 | COc1cc2nccc(Oc3ccc(NC(=O)Nc4cc(C)on4)c(Cl)c3)c2cc1OC | 73.5 | –
9 | Cc1cc(OCCC[S+](C)(=O)[O-])cc(C)c1-c1cccc(COc2ccc3c(c2)OC[C@H]3CC(=O)O)c1 | 112 | –
10 | O=[N+]([O-])c1ncc[nH]1 | 82.9 | –
11 | NC/1=N/C(=O)N(C[C@@H](CO)OC[P](O)(O)=O)/C=C1 | – | 104
12 | CC1CNc2c(cccc2[S+](=O)([O-])N[C@@H](CCCNC(=N)N)C(=O)N2CC[C@@H](C)C[C@@H]2C(=O)O)C1 (some centres not stated) | 125 | –
13 | NC(=O)c1ncn([C@@H]2O[C@H](CO)[C@@H](O)[C@H]2O)c1O | 116 | –
14 | Cc1ccc(C(=O)Nc2cccc(C(F)(F)F)c2)cc1Nc1nc(-c2cccnc2)nc2c1cnn2C | 87.4 | –
15 | O=C1C(CCC(O)c2ccc(F)cc2)C(c2ccc(O)cc2)N1c1ccc(F)cc1 (configuration not stated) | 94.9 | –
16 | CN1\C(=C(\O)C2=C(C=CS2)[S+]1([O-])=O)C(=O)NC3=CC=CC=N3 | 126 | –
17 | CC(C)Cn1cnc2c(N)nc3ccccc3c21 | 116 | –
18 | O=C(Nc1cccc(Cl)c1)Nc1ncc(CCNc2ncnc3ccsc23)s1 | 116 | –
19 | CC[C@@]1(O)C[C@H](O[C@H]2C[C@H](N(C)C)[C@H](O[C@H]3C[C@H](O)[C@H](O[C@H]4CCC(=O)[C@H](C)O4)[C@H](C)O3)[C@H](C)O2)c2c(cc3c(c2O)C(=O)c2c(O)cccc2C3=O)[C@H]1C(=O)OC | 83.4 | –

Row | Compound | viability (top concentration 46.1 µM) | viability (top concentration 23 µM)
20 | CCC(=O)O[C@@]1([C@H](C)C[C@H]2[C@@H]3C[C@H](F)\C4=C\C(=O)\C=C/[C@]4(C)[C@@]3(F)[C@@H](O)C[C@]12C)C(=O)SCF | 162 | –
21 | C\C1=C\C(=O)C2=C(C=CC=C2)C1=O | 109 | –
22 | CC(=O)NCCC(=O)N[C@@H](CCC(N)=O)C(=O)N[C@@H](CO)C(=O)N[C@@H](CCC(N)=O)C(=O)N[C@@H](CCC(N)=O)C(=O)N[C@H](C(=O)N[C@@H](Cc1ccccc1)C(=O)N[C@]1(C)CCCCCC/C=C\CCC[C@@](C)(C(=O)N[C@@H](CCC(N)=O)C(=O)N[C@@H](CC(N)=O)C(N)=O)NC(=O)[C@H](CC(C)C)NC(=O)[C@H](CC(C)C)NC(=O)[C@@H](CCCNC(=N)N)NC(=O)[C@H](Cc2c[nH]c3ccccc23)NC(=O)[C@H](CC(C)C)NC(=O)[C@H](CC(N)=O)NC1=O)[C@H](C)O | 99.6 | –
23 | COC1=CC=C(C(=C1)OC(C)C)C/2=N/[C@@H]([C@@H](N2C(=O)N3CCNC(=O)C3)C4=CC=C(Cl)C=C4)C5=CC=C(Cl)C=C5 | 121 | –
24 | NC(=O)c1ncn([C@@H]2O[C@H](CO)[C@@H](O)[C@H]2O)n1 | 99.6 | –
25 | C[C@@H]1CCO[C@H]2CN\3/C=C(/C(=O)NCC4=C(F)C=C(F)C=C4)C(=O)\C(=C3C(=O)N12)O | 110 | –
26 | NC\1=N\C(=O)N(\C=C1)[C@@H]2O[C@H](CO)[C@@H](O)[C@@H]2O | 113 | –
27 | c1ccc(CCCN2CCN(CCOC(c3ccccc3)c3ccccc3)CC2)cc1 | 88.7 | –
28 | COc1ccc(CC2NCCc3cc(OC)c(OC)cc32)cc1OC (configuration not stated) | 91.3 | –
29 | C/C=C/C/C=C/CCC(=O)[C@H]1O[C@H]1C(N)=O | 93.5 | –
30 | COC(c1ccccc1)(c1ccccc1)[C@H](Oc1nc(C)cc(C)n1)C(=O)O | 136 | –
31 | COc1ccc([S+](=O)([O-])N(C(C)=O)c2ccccc2/C=C/c2cc[n+]([O-])cc2)cc1 | 60.2 | –
32 | CC(C)(O)CC(=O)NCCn1ccc2ncnc(Nc3ccc(Oc4cccc(C(F)(F)F)c4)c(Cl)c3)c21 | 71.7 | –
33 | CNC(=O)c1cc(Oc2ccc(NC(=O)Nc3ccc(Cl)c(C(F)(F)F)c3)cc2)ccn1 | 87 | –
34 | O=C1NC(=O)/C(=C\c2ccc(-c3ccc(F)cc3)o2)S1 | 106 | –
35 | NCC1(CC(=O)O)CCCCC1 | 115 | –
36 | O=C(c1ccc(F)cc1)N1CCC[C@H](c2nc(-c3ccc(F)cc3)no2)C1 | 119 | –
37 | CCn1c(=O)c2c(nc(/C=C/c3ccc(OC)c(OC)c3)n2C)n(CC)c1=O | 134 | –
38 | Cn1c(=O)c2[nH]cnc2n(C)c1=O | 120 | –

Row | Compound | viability (top concentration 46.1 µM) | viability (top concentration 23 µM)
39 | Cn1cnc([N+](=O)[O-])c1Sc1ncnc2nc[nH]c12 | 105 | –
40 | O=C(c1ccc(OCCN2CCCCC2)cc1)c1c(-c2ccc(O)cc2)sc2cc(O)ccc12 | 94.4 | –
41 | CC(C)CC(=O)N[C@H](C(=O)N[C@H](C(=O)N[C@@H](CC(C)C)[C@@H](O)CC(=O)N[C@@H](C)C(=O)N[C@@H](CC(C)C)[C@@H](O)CC(=O)O)C(C)C)C(C)C | 99.5 | –
42 | C[N+](C)([O-])CCNc1ccc(NCC[N+](C)(C)[O-])c2c1C(=O)c1c(O)ccc(O)c1C2=O | 104 | –
43 | CCCCC(F)(F)[C@@]1(O)CC[C@H]2[C@@H](CC(=O)[C@@H]2CCCCCCC(=O)O)O1 | 110 | –
44 | COC1=CC=C(C=C1)/C2=C(O)/C(=O)C3=C(O)C=C(O)C(=C3O2)CC=C(C)C | 138 | –
45 | CN(C/C=C/C#CC(C)(C)C)Cc1cccc2ccccc12 | 123 | –
46 | NNC(=O)c1ccncc1 | 104 | –
47 | N#C/N=C(\NCCCCCCOc1ccc(Cl)cc1)Nc1ccncc1 | 115 | –
48 | O=C(O)CCNc1cc(N2CCc3ccccc3CC2)nc(-c2ccccn2)n1 | 125 | –
49 | COC1=CC=C(C=C1)C/2=C(OC3O[C@@H](C)[C@H](O)[C@@H](O)[C@H]3O)/C(=O)C4=C(O2)C(=C(OC5O[C@H](CO)[C@@H](O)[C@H](O)[C@H]5O)C=C4O)CC=C(C)C (some centres not stated) | 117 | –
50 | C[S+](=O)([O-])c1cccc(CNc2nc(Nc3ccc4c(c3)CCC(=O)N4)ncc2C(F)(F)F)c1 | 66.8 | –
51 | CC(C)(O)CC[C@@H](O)[C@](C)(O)[C@H]1CC[C@@]2(O)C/3=C/C(=O)[C@@H]4C[C@@H](O)[C@@H](O)C[C@]4(C)[C@H]3CC[C@]12C | 111 | –
52 | NCCCCNCCCN | 121 | –
53 | C[C@@H]1CC[C@@]2(OC1)OC1CC3C4CC=C5CC(O)CCC5(C)C4CCC3(C)C1[C@@H]2C (some centres not stated) | 120 | –
54 | CCN(CC)CCCC(C)Nc1ccnc2cc(Cl)ccc12 (configuration not stated) | 103 | –
55 | CN[S+](=O)([O-])Cc1ccc2[nH]cc(CCN(C)C)c2c1 | 126 | –
56 | COc1nccc(-c2c(-c3ccc(F)cc3)ncn2C2CCNCC2)n1 | 131 | –
57 | c1ccc2c(CN3CCNCC3)cccc2c1 | 122 | –

Reference: the supplement of paper PMC6723410
